{"source": "paper PMC3579193", "about": "“Elucidation of relaxin-3 binding interactions in the extracellular loops of RXFP3” (Frontiers in Endocrinology, 2013)", "key": {"HA-RXFP3 ∆1–33": {"target": "T1, HA-RXFP3 ∆1–33 (Homo sapiens, UniProt Q9NSD7)", "T1 construct": "expressed in transfected cells; host or cells: HEK-293T", "T1 sequence (Q9NSD7 34-469)": "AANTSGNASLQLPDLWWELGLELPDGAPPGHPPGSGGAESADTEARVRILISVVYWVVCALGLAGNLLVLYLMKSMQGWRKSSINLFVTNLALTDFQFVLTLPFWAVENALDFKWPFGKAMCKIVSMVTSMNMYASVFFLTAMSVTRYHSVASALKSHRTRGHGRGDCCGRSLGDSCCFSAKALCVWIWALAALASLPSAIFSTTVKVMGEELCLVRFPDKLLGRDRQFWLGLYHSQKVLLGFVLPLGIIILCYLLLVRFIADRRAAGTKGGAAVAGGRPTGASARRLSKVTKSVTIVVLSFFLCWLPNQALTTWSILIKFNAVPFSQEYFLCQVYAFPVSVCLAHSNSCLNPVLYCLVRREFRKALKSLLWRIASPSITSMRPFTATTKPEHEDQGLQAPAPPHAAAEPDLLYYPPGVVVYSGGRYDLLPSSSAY", "assay": "Competition binding with Eu-H3/I5, HA-RXFP3 ∆1–33", "from_the_text": "(§1) PCR reactions and cloning were undertaken as previously described ([Scott et al., 2006], [2012]).\nA pcDNA3.1zeo (+) vector with a start codon and HA tag (pcDNA3.1zeo (+)-HA) was produced by ligating a double stranded primer containing a BamHI site at the 5′ end followed by a start codon and HA tag and then a EcoRV blunt site at the 3′ end (Table 2) into a pcDNA3.1zeo (+) vector cut with BamHI and EcoRV. […]\nHEK-293T cells were transfected in 96 well optiplates (Perkin Elmer) with plasmids encoding the constructs of interest and Eu-H3/I5 binding assays conducted as described previously ([Luo et al., 2010]; [Haugaard-Kedstrom et al., 2011]). […] Binding data are expressed as mean ± standard error of mean (SEM) of % specific binding of triplicate measurements pooled from at least three independent experiments. Data were analyzed using Graphpad PRISM (Graphpad Inc.) and a non-linear regression one-site binding model was used to plot curves and calculate pIC50 values. […] The HA epitope was detected using a purified mouse monoclonal anti-HA antibody [HA.11(16B12), Covance] and a Alexafluor488-labeled goat anti mouse IgG (Invitrogen) in cell surface expression assays that were performed in 24 well plates as previously described ([Yan et al., 2008]). […] Pooled data were analyzed using one-way ANOVA coupled to Newman–Keuls multiple comparison test for multiple group comparison."}, "HA-RXFP3 E55A/D58A": {"target": "T2, HA-RXFP3 E55A/D58A (Homo sapiens, UniProt Q9NSD7, D58A/E55A)", "T2 construct": "expressed in transfected cells; host or cells: HEK-293T", "T2 sequence (Q9NSD7 2-469 E55A/D58A limits assumed)": "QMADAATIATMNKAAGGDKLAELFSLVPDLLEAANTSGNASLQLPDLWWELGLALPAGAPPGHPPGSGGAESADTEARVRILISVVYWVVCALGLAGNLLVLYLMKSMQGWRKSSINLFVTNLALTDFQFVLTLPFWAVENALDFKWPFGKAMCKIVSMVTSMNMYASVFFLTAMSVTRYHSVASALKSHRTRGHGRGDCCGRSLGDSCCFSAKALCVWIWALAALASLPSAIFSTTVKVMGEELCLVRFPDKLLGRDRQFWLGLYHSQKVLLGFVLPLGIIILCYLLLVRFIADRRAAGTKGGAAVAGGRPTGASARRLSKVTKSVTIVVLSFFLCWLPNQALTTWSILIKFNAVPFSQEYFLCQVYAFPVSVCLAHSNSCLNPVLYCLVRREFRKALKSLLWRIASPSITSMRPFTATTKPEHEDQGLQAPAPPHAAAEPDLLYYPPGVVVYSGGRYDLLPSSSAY", "assay": "Competition binding with Eu-H3/I5, HA-RXFP3 E55A/D58A", "protocol": "as §1\n(§2) The same protocol was used to prepare DNA templates of all Glu/Asp to Ala mutants, entailing a single codon change except for D47A/E51A, E55A/D58A, and E141A/D145A which required a double codon change both to Ala. The forward and reverse primers for all mutants are listed in Table 1 and mutagenesis reactions on pcDNA3.1zeo (+)-HA-RXFP3 were performed as previously described ([Scott et al., 2006]; [Yan et al., 2008]). […]\n(§3) HEK-293T cells were transfected in 96 well optiplates (Perkin Elmer) with plasmids encoding the constructs of interest and Eu-H3/I5 binding assays conducted as described previously ([Luo et al., 2010]; [Haugaard-Kedstrom et al., 2011]). […] Binding data are expressed as mean ± standard error of mean (SEM) of % specific binding of triplicate measurements pooled from at least three independent experiments. Data were analyzed using Graphpad PRISM (Graphpad Inc.) and a non-linear regression one-site binding model was used to plot curves and calculate pIC50 values. […] The HA epitope was detected using a purified mouse monoclonal anti-HA antibody [HA.11(16B12), Covance] and a Alexafluor488-labeled goat anti mouse IgG (Invitrogen) in cell surface expression assays that were performed in 24 well plates as previously described ([Yan et al., 2008]). […]"}, "HA-RXFP3 D75A": {"target": "T3, HA-RXFP3 D75A (Homo sapiens, UniProt Q9NSD7, D75A)", "T3 construct": "expressed in transfected cells; host or cells: HEK-293T", "T3 sequence (Q9NSD7 2-469 D75A limits assumed)": "T2 sequence (Q9NSD7 2-469 E55A/D58A limits assumed) with A54E, A57D, D74A", "assay": "Competition binding with Eu-H3/I5, HA-RXFP3 D75A", "protocol": "as §1, §2, §3"}}, "note": "Where a chain is given by its changes, count along the chain named.", "data": [{"smiles": "CC[C@H](C)[C@@H]1NC(=O)[C@H](Cc2ccccc2)NC(=O)[C@H](CCC(=O)O)NC(=O)[C@H](CCCNC(=N)N)NC(=O)CNC(=O)[C@@H](NC(=O)[C@H](CC(C)C)NC(=O)[C@H](CCCNC(=N)N)NC(=O)[C@@H](NC(=O)CNC(=O)[C@H](Cc2ccc(O)cc2)NC(=O)[C@@H]2CCCN2C(=O)[C@H](C)NC(=O)[C@H](C)NC(=O)[C@@H](N)CCCNC(=N)N)C(C)C)CSSC[C@@H]2NC(=O)[C@@H](NC(=O)[C@H](CO)NC(=O)[C@H](CO)NC(=O)[C@H](CO)NC(=O)[C@H](CC(C)C)NC(=O)CNC(=O)[C@H](C)NC(=O)[C@H](CC(C)C)NC(=O)[C@@H](NC(=O)[C@@H](N)CC(=O)O)C(C)C)CSSC[C@H](NC(=O)CNC(=O)[C@H](Cc3c[nH]c4ccccc34)NC(=O)[C@H](CCCCN)NC2=O)C(=O)N[C@@H](CO)C(=O)N[C@@H](CCCCN)C(=O)N[C@@H](CO)C(=O)N[C@@H](CCC(=O)O)C(=O)N[C@@H]([C@@H](C)CC)C(=O)N[C@@H](CO)C(=O)N[C@@H](CO)C(=O)N[C@@H](CC(C)C)C(=O)N[C@H](C(=O)O)CSSC[C@@H](C(=O)NCC(=O)NCC(=O)N[C@@H](CO)C(=O)N[C@@H](CCCNC(=N)N)C(=O)N[C@@H](Cc2c[nH]c3ccccc23)C(=O)O)NC(=O)[C@H]([C@@H](C)O)NC(=O)[C@H](Cc2ccccc2)NC(=O)[C@H]([C@@H](C)CC)NC(=O)[C@H](C(C)C)NC(=O)[C@H](C)NC(=O)[C@H](CCCNC(=N)N)NC1=O", "note": "[H3 relaxin]", "values": [{"measurement": "IC50", "setting": "HA-RXFP3 ∆1–33", "result": 14.8, "unit": "nM"}, {"measurement": "effect on affinity of truncation", "setting": "HA-RXFP3 ∆1–33; vs HA-RXFP3, competition binding", "result": "no significant effect on the affinity"}, {"measurement": "IC50", "setting": "HA-RXFP3 E55A/D58A", "result": 9.33, "unit": "nM"}, {"measurement": "affinity compared with HA-RXFP3", "setting": "HA-RXFP3 E55A/D58A; competition binding, p > 0.05", "result": "not significantly different from HA-RXFP3"}, {"measurement": "IC50", "setting": "HA-RXFP3 D75A", "result": 20, "unit": "nM"}, {"measurement": "affinity compared with HA-RXFP3", "setting": "HA-RXFP3 D75A; competition binding", "result": "no significant difference in the affinity"}]}]}
